Measurements from paper PMC4646457 (PLoS ONE, 2015).
≈ marks a conversion by molar mass, not a printed value. Where two headings read alike, the source gives them in different places.

Assays:
[1] = EGF10027 steady-state lapatinib concentrations in patient plasma and tumor; assay type: in vivo, human; conditions: for concentration at 12 h / concentration at 24 h: female, human, oral; for concentration at 12 h: 500 mg
CYP3A = tested on: CYP3A; design: method as in EGF10027 protocol, CIB RM2000/00481/06; conditions: pregnane X receptor-screening assay; ref EGF10027 protocol, CIB RM2000/00481/06; cited from earlier work
[2] = design: method as in EGF10027 protocol, CIB RM2000/00481/06; conditions: mice, rats and dogs; ref EGF10027 protocol, CIB RM2000/00481/06; cited from earlier work
[3] = tested on: HER2+ human breast cancer cell lines; design: method as in PMID 12467226; conditions: in vitro proliferative growth, cited from earlier work
[4] = mice; ref EGF10027 protocol, CIB RM2000/00481/06; cited from earlier work
[5] = ref EGF10027 protocol, CIB RM2000/00481/06, cited from earlier work
in vivo = conditions: female, CB-17 SCID, mouse; for AUC(0-t): AUClast; for MRT last: MRTlast
[6] = BT474 tumor, po, 100 mg/kg, 100 mg/kg BID, multiple doses
[7] = BT474 tumor, po, 100 mg/kg, single dose
[8] = BT474 tumor, po, 200 mg/kg, 200 mg/kg QD, multiple doses
[9] = BT474 tumor, po, 200 mg/kg, single dose
[10] = blood, po, 100 mg/kg, 100 mg/kg BID, multiple doses
[11] = blood, po, 100 mg/kg, single dose
[12] = blood, po, 200 mg/kg, 200 mg/kg QD, multiple doses
[13] = blood, po, 200 mg/kg, single dose
[14] = kidney, oral, 100 mg/kg, single dose

Structure (SMILES): CS(=O)(=O)CCNCc1ccc(-c2ccc3ncnc(Nc4ccc(OCc5cccc(F)c5)c(Cl)c4)c3c2)o1 [lapatinib]
- concentration at 12 h ([1]; plasma, patients, median (range), 500 mg BID (n = 5), steady state, read-out: Plasma Cmin): 2750 nM
- concentration at 24 h ([1]; plasma, 1000 mg, patients, median (range), 1000 mg QD (n = 5), steady state, read-out: Plasma Cmin): 1540 nM
- concentration at 24 h ([1]; plasma, 1500 mg, patients, median (range), 1500 mg QD (n = 3), steady state, read-out: Plasma Cmin): 390 nM
- concentration at 12 h ([1]; tumor, patients, median (range), 500 mg BID (n = 5), steady state, read-out: Tumor Cmin): 13000 nM
- concentration at 24 h ([1]; tumor, 1000 mg, patients, median (range), 1000 mg QD (n = 5), steady state, read-out: Tumor Cmin): 2290 nM
- concentration at 24 h ([1]; tumor, 1500 mg, patients, median (range), 1500 mg QD (n = 3), steady state, read-out: Tumor Cmin): 2270 nM
- Tumor Cmin ([1]; patients, median (range), 500 mg BID (n = 5), steady state): 12.8 (7.9–31.1) μM
- Lap conc, tumor ([1]; subject 5): 25.60 µM
- Lap conc, tumor ([1]; subject 124): 56.02 µM
- Lap conc, tumor ([1]; subject 801): 1.98 µM
- Lap conc, tumor ([1]; subject 803): 2.08 µM
- Lap conc, tumor ([1]; subject 804): 7.90 µM
- Lap conc, tumor ([1]; subject 1401): 1.02 µM
- Lap conc, tumor ([1]; subject 1403): 9.08 µM
- Lap conc, tumor ([1]; subject 1405): 12.76 µM
- CYP3A induction (CYP3A): no abil it y to induce CYP3A
- urinary excretion of the oral dose [2]: < 1%
- IC90 in multiple HER2+ human breast cancer cell lines [3]: ~0.5 µg/mL (≈ 0.86 µM)
- IC90 ([3]; read-out: IC90 in multiple HER2+ human breast cancer cell lines): ~900 nM
- single intravenous dose with no deaths [4]: up to 46 mg/kg
- single oral dose with no deaths [4]: up to 2,000 mg/kg
- NOAEL ([5]; female rats): 20 mg/kg/day
- NOAEL ([5]; male rats): 60 mg/kg/day
- generally well tolerated dose ([5]; rats, up to 13 weeks): ≤ 60 mg/kg/day
- concentration at 96 h (in vivo; BT474 tumor, oral, 200 mg/kg, Concentration, individual animals 1-3, tumor, 200 mg/kg QD, 96 h): 915 ng/mL
- AUC(0-t) (in vivo; [6]): 1120 µg·h/mL
- AUC(0-t) (in vivo; [7]): 313 µg·h/mL
- Cmax (in vivo; [6]): 55800 ng/mL
- Cmax (in vivo; [7]): 24900 ng/mL
- MRT last (in vivo; [6]): 20.5 h
- MRT last (in vivo; [7]): 12.6 h
- Tmax (in vivo; [6]): 4 h
- Tmax (in vivo; [7]): 12 h
- AUC(0-t) (in vivo; [8]): 1320 µg·h/mL
- AUC(0-t) (in vivo; [9]): 579 µg·h/mL
- Cmax (in vivo; [8]): 79200 ng/mL
- Cmax (in vivo; [9]): 44000 ng/mL
- MRT last (in vivo; [8]): 18.7 h
- MRT last (in vivo; [9]): 17.5 h
- Tmax (in vivo; [8]): 10 h
- Tmax (in vivo; [9]): 1 h
- half-life (in vivo; blood, liver, kidney, tumor, oral, 100 mg/kg): 4 h
- concentration at 10 h (in vivo; blood, oral, 100 mg/kg, Concentration, individual animals 1-3, blood, 100 mg/kg BID, 10 h): 3080 ng/mL
- concentration at 24 h (in vivo; blood, oral, 100 mg/kg, Concentration, individual animals 1-3, blood, 100 mg/kg BID): 95.2 ng/mL
- concentration at 24 h (in vivo; blood, oral, 200 mg/kg, Concentration, individual animals 1-3, blood, 200 mg/kg QD): 28 ng/mL
- AUC(0-t) (in vivo; [10]): 102 µg·h/mL
- AUC(0-t) (in vivo; [11]): 46.7 µg·h/mL
- Cmax (in vivo; [10]): 9350 ng/mL
- Cmax (in vivo; [11]): 7040 ng/mL
- MRT last (in vivo; [10]): 6.9 h
- MRT last (in vivo; [11]): 6.3 h
- Tmax (in vivo; [10]): 1 h
- Tmax (in vivo; [11]): 1 h
- AUC(0-t) (in vivo; [12]): 152 µg·h/mL
- AUC(0-t) (in vivo; [13]): 88.2 µg·h/mL
- Cmax (in vivo; [12]): 16100 ng/mL
- Cmax (in vivo; [13]): 8220 ng/mL
- MRT last (in vivo; [12]): 7.3 h
- MRT last (in vivo; [13]): 8.5 h
- Tmax (in vivo; [12]): 10 h
- Tmax (in vivo; [13]): 12 h
- AUC(0-t) (in vivo; [14]): 267 µg·h/mL
- Cmax (in vivo; [14]): 29800 ng/mL
- concentration at 1 h (in vivo; kidney, oral, 100 mg/kg, Concentration, individual animals 1-3, kidney, 100 mg/kg BID, 1 h): 57200 ng/mL
- concentration at 4 h (in vivo; kidney, oral, 100 mg/kg, Concentration, individual animals 1-3, kidney, 100 mg/kg BID, 4 h): 72300 ng/mL
- concentration at 48 h (in vivo; kidney, oral, 100 mg/kg, Concentration, individual animals 1-3, kidney, 100 mg/kg BID, 48 h): 114 ng/mL
